The compounds below were run against T1, human RORγ-LBD (Homo sapiens, UniProt P51449) (assay: ROR gamma coactivator peptide recruitment Alphascreen assay (RORγ-LBD binding to GRIP1 coactivator peptide)). Conditions: 5 nM human RORγ-LBD, 30 nM 7-β-hydroxycholesterol, 50 nM biotinylated GRIP1 coactivator peptide, overnight incubation at room temperature; read-out: result (pIC50, RORγ coactivator peptide recruitment Alphascreen assay) (converted).
T1 construct: made in house; host or cells: E. coli (BL-21)
T1 sequence (P51449 262-518): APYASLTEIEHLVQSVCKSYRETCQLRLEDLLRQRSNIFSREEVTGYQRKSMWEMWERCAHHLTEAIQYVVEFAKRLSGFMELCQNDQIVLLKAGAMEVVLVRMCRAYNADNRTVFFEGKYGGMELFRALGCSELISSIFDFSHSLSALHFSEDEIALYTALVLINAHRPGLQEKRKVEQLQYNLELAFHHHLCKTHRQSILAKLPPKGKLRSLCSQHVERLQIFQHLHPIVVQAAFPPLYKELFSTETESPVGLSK
Format: biochemical
Outline: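 His/Flag-tagged human RORγ-LBD (aa 262-518, E. coli-expressed, 5 nM) with agonist 7-β-hydroxycholesterol (30 nM) and biotinylated GRIP1 LXXLL peptide (50 nM) in HEPES pH 7.4 buffer, 2.5% DMSO. Compound 1-in-2 dilutions; Alphascreen bead signal read after overnight incubation at room temperature; pIC50 calculated.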

| Structure (SMILES) | IC50 [nM] |
| --- | --- |
| C[C@@H]1C[C@H](n2ncc(C(=O)N(CC(=O)c3c(Cl)cncc3Cl)C[C@]34CC[C@H](CC3)O4)c2C(F)(F)F)CC[C@H]1C(=O)O [Example 867, (1S,2S,4S)-4-(4-((2-(3,5-dichloro-4-pyridinyl)-2-oxoethyl)((1s,4s)-7-oxabicyclo[2.2.1]hept-1-ylmethyl)carbamoyl)-5-(trifluoromethyl)-1H-pyrazol-1-yl)-2-methylcyclohexanecarboxylic acid] | 24.5 |
| CC(C)(C)CN(CC(=O)c1c(Cl)cncc1Cl)C(=O)c1cnn([C@H]2CC[C@](C)(C(=O)O)C[C@H]2F)c1C(F)(F)F [Example 868, (1S,3R,4S)-4-(4-((2-(3,5-dichloro-4-pyridinyl)-2-oxoethyl)(2,2-dimethylpropyl)carbamoyl)-5-(trifluoromethyl)-1H-pyrazol-1-yl)-3-fluoro-1-methylcyclohexanecarboxylic acid] | 4.57 |
| CC(C)(C)CN(CC(=O)c1c(Cl)cncc1Cl)C(=O)c1cnn([C@@H]2CC[C@@](C)(C(=O)O)C[C@@H]2F)c1C(F)(F)F [Example 869, (1R,3S,4R)-4-(4-((2-(3,5-dichloro-4-pyridinyl)-2-oxoethyl)(2,2-dimethylpropyl)carbamoyl)-5-(trifluoromethyl)-1H-pyrazol-1-yl)-3-fluoro-1-methylcyclohexanecarboxylic acid] | 13.8 |
| CC(C)(C)CN(CC(=O)c1c(Cl)cncc1Cl)C(=O)c1cnn([C@H]2CC[C@@](C)(C(=O)O)C[C@@H]2F)c1C(F)(F)F [Example 870, (1R,3S,4S)-4-(4-((2-(3,5-dichloro-4-pyridinyl)-2-oxoethyl)(2,2-dimethylpropyl)carbamoyl)-5-(trifluoromethyl)-1H-pyrazol-1-yl)-3-fluoro-1-methylcyclohexanecarboxylic acid] | 575 |
| CC(C)(C)CN(CC(=O)c1c(Cl)cncc1Cl)C(=O)c1cnn([C@@H]2CC[C@]3(C(=O)O)CCC[C@@H]3C2)c1C(F)(F)F [Example 871] | 5.01 |
| COc1ncc(Cl)c(CCN(CC(C)(C)C)C(=O)c2cnn([C@H]3CC[C@](C)(C(=O)O)CC3)c2C(F)(F)F)c1Cl [Example 872, trans-4-(4-((2-(3,5-dichloro-2-methoxy-4-pyridinyl)ethyl)(2,2-dimethylpropyl)carbamoyl)-5-(trifluoromethyl)-1H-pyrazol-1-yl)-1-methylcyclohexanecarboxylic acid] | 97.7 |
| C[C@H]1C[C@@H](n2ncc(C(=O)N(CC(=O)c3c(Cl)cncc3Cl)CC(C)(C)C)c2C(F)(F)F)CC[C@]1(C)C(=O)O [Example 873, (1S,2S,4S)-4-(4-((2-(3,5-dichloro-4-pyridinyl)-2-oxoethyl)(2,2-dimethylpropyl)carbamoyl)-5-(trifluoromethyl)-1H-pyrazol-1-yl)-1,2-dimethylcyclohexanecarboxylic acid] | 5.25 |
| C[C@@H]1C[C@H](n2ncc(C(=O)N(CC(=O)c3c(Cl)cncc3Cl)CC(C)(C)C)c2C(F)(F)F)CC[C@@]1(C)C(=O)O [Example 874, (1R,2R,4R)-4-(4-((2-(3,5-dichloro-4-pyridinyl)-2-oxoethyl)(2,2-dimethylpropyl)carbamoyl)-5-(trifluoromethyl)-1H-pyrazol-1-yl)-1,2-dimethylcyclohexanecarboxylic acid] | 7.76 |
| C[C@H]1C[C@H](n2ncc(C(=O)N(CC(=O)c3c(Cl)cncc3Cl)CC(C)(C)C(F)(F)F)c2C(F)(F)F)CC[C@H]1C(=O)O [Example 875, (1R,2S,4R)-4-(4-((2-(3,5-dichloro-4-pyridinyl)-2-oxoethyl)(3,3,3-trifluoro-2,2-dimethylpropyl)carbamoyl)-5-(trifluoromethyl)-1H-pyrazol-1-yl)-2-methylcyclohexanecarboxylic acid] | 11.7 |
| CC(C)(C)CN(CC(=O)c1c(Cl)cncc1Cl)C(=O)c1cnn([C@H]2CC[C@@]3(C(=O)O)CCC[C@H]3C2)c1C(F)(F)F [Example 876, (3aS,6S,7aS )-6-(4-((2-(3,5-dichloropyridin-4-yl)-2-oxoethyl)(neopentyl)carbamoyl)-5-(trifluoromethyl)-1H-pyrazol-1-yl)octahydro-1H-indene-3a-carboxylic acid] | 6.17 |
| CC(C)(C)CN(CC(=O)c1c(Cl)cncc1Cl)C(=O)c1cnn([C@@H]2CC[C@]3(C(=O)O)CCC[C@@H]3C2)c1C(F)(F)F [Example 877, (3aR,6R,7aR)-6-(4-((2-(3,5-dichloropyridin-4-yl)-2-oxoethyl)(neopentyl)carbamoyl)-5-(trifluoromethyl)-1H-pyrazol-1-yl)octahydro-1H-indene-3a-carboxylic acid] | 6.17 |
| C[C@@H]1C[C@H](n2ncc(C(=O)N(CC(=O)c3c(Cl)cncc3Cl)CC(C)(C)C(F)(F)F)c2C(F)(F)F)CC[C@H]1C(=O)O [Example 878, (1R,2R,4R)-4-(4-((2-(3,5-dichloro-4-pyridinyl)-2-oxoethyl)(3,3,3-trifluoro-2,2-dimethylpropyl)carbamoyl)-5-(trifluoromethyl)-1H-pyrazol-1-yl)-2-methylcyclohexanecarboxylic acid] | 3.89 |
| C[C@@H]1C[C@H](n2ncc(C(=O)N(CC(=O)c3c(Cl)cncc3Cl)C[C@]34CC[C@H](CC3)O4)c2C(F)(F)F)CC[C@H]1C(=O)O [Example 880, (1R,2R,4R)-4-(4-((2-(3,5-dichloro-4-pyridinyl)-2-oxoethyl)((1s,4s)-7-oxabicyclo[2.2.1]hept-1-ylmethyl)carbamoyl)-5-(trifluoromethyl)-1H-pyrazol-1-yl)-2-methylcyclohexanecarboxylic acid] | 16.2 |
| C[C@H]1C[C@@H](n2ncc(C(=O)N(CC(=O)c3c(Cl)cncc3Cl)C[C@]34CC[C@H](CC3)O4)c2C(F)(F)F)CC[C@@H]1C(=O)O [Example 881, (1S,2S,4S)-4-(4-((2-(3,5-dichloro-4-pyridinyl)-2-oxoethyl)((1s,4s)-7-oxabicyclo[2.2.1]hept-1-ylmethyl)carbamoyl)-5-(trifluoromethyl)-1H-pyrazol-1-yl)-2-methylcyclohexanecarboxylic acid] | 24.5 |
| C[C@@H]1C[C@@](C)(C(=O)O)CC[C@@H]1n1ncc(C(=O)N(CC(=O)c2c(Cl)cncc2Cl)CC(C)(C)C)c1C(F)(F)F [Example 882, (1S,3R,4S)-4-(4-((2-(3,5-dichloro-4-pyridinyl)-2-oxoethyl)(2,2-dimethylpropyl)carbamoyl)-5-(trifluoromethyl)-1H-pyrazol-1-yl)-1,3-dimethylcyclohexanecarboxylic acid] | 646 |
| C[C@H]1C[C@](C)(C(=O)O)CC[C@H]1n1ncc(C(=O)N(CC(=O)c2c(Cl)cncc2Cl)CC(C)(C)C)c1C(F)(F)F [Example 883, (1R,3S,4R)-4-(4-((2-(3,5-dichloro-4-pyridinyl)-2-oxoethyl)(2,2-dimethylpropyl)carbamoyl)-5-(trifluoromethyl)-1H-pyrazol-1-yl)-1,3-dimethylcyclohexanecarboxylic acid] | 708 |
| CC(C)(CN(CC(=O)c1c(Cl)cncc1Cl)C(=O)c1cnn([C@H]2CC[C@H](CC(=O)O)CC2)c1C(F)(F)F)C(F)(F)F [Example 884, (trans-4-(4-((2-(3,5-dichloro-4-pyridinyl)-2-oxoethyl)(3,3,3-trifluoro-2,2-dimethylpropyl)carbamoyl)-5-(trifluoromethyl)-1H-pyrazol-1-yl)cyclohexyl)acetic acid] | 1.82 |

Source: patent US9365522B2, “Pyrazole amide derivative” (AMGEN INC., priority 2015, dated 2016)
